Consider eight compounds from patent publication US10040781B2, “Tank-binding kinase inhibitor compounds” (Gilead Sciences, Inc., priority 2014, dated 2018).

The target in one experiment is TBK1 (Homo sapiens (Human), UniProt Q9UHD2). Briefly: TBK1 TR-FRET enzymatic assay.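 Note: phosphorylation of a biotinylated Ser/Thr peptide by purified full-length recombinant TBK1, read by TR-FRET after 240 min at 25 °C, IC50 is the geometric mean of at least four runs.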 A general note: In TR-FRET formats the signal depends on donor and acceptor labels being close together.
TBK1, sequence (Q9UHD2 whole entry): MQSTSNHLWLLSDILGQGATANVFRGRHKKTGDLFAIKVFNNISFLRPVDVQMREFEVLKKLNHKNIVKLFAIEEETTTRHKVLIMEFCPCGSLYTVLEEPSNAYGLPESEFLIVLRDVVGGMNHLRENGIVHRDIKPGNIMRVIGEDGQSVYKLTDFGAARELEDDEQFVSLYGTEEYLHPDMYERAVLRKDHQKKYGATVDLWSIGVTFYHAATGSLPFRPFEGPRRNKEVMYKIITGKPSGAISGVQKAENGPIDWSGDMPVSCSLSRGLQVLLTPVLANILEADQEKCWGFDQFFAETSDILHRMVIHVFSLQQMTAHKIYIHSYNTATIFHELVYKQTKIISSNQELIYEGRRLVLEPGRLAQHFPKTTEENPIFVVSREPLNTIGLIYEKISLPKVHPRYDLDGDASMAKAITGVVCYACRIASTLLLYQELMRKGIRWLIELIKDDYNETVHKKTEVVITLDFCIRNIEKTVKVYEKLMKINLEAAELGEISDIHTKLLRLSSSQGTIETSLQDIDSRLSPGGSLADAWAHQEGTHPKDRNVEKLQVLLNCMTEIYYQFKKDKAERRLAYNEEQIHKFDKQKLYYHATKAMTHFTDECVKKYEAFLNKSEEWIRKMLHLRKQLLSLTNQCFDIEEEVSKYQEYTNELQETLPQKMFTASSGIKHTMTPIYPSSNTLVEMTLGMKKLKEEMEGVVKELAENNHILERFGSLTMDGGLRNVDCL
Another experiment concerns the target IKKε (Homo sapiens (Human), UniProt Q14164). Briefly: IKKε TR-FRET enzymatic assay. The class given is biochemical. To be noted: read-out: IKKe IC50.
For a further experiment, the target named is hJAK2 (Homo sapiens (Human), UniProt O60674). The experiment can be described thus: hJAK2 LANCE TR-FRET enzymatic assay. It is filed as biochemical. Particulars: read-out: JAK2 IC50.
hJAK2, sequence (O60674 whole entry): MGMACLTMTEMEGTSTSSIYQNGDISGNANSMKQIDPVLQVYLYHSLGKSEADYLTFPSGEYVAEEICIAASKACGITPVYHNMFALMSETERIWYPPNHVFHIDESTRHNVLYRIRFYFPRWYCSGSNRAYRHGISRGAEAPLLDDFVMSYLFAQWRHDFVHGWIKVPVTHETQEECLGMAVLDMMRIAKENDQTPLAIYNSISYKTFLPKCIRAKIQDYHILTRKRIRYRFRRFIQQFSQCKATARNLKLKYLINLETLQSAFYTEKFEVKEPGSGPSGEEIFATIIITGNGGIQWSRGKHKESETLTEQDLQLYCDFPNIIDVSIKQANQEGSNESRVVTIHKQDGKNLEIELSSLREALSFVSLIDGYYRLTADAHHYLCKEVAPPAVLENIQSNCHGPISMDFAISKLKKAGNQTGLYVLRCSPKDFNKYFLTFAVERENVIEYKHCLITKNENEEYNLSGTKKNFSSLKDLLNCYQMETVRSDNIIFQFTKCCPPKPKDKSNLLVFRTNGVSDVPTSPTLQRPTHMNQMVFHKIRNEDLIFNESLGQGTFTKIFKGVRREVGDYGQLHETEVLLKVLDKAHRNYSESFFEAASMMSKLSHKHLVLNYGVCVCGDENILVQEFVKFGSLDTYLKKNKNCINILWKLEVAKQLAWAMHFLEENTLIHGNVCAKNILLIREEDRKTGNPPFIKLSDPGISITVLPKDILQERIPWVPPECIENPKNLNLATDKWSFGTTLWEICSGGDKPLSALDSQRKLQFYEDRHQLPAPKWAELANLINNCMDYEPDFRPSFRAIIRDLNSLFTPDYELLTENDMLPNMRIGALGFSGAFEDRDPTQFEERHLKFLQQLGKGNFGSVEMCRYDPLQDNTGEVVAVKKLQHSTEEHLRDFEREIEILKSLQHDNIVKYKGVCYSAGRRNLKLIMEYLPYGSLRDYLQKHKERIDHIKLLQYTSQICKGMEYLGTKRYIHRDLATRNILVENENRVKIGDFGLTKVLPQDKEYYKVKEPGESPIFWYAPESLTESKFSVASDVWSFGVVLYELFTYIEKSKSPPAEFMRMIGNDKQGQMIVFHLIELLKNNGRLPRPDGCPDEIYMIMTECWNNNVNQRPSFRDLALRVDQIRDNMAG
Setting [1] is: TR-FRET, 2×Km ATP, geometric mean of minimum four determinations.

Read-outs that look alike come from different tables or passages of the source.

What is called IC50 is the point on the concentration scale where inhibition reaches its midpoint.

IKKε, sequence (Q14164 whole entry): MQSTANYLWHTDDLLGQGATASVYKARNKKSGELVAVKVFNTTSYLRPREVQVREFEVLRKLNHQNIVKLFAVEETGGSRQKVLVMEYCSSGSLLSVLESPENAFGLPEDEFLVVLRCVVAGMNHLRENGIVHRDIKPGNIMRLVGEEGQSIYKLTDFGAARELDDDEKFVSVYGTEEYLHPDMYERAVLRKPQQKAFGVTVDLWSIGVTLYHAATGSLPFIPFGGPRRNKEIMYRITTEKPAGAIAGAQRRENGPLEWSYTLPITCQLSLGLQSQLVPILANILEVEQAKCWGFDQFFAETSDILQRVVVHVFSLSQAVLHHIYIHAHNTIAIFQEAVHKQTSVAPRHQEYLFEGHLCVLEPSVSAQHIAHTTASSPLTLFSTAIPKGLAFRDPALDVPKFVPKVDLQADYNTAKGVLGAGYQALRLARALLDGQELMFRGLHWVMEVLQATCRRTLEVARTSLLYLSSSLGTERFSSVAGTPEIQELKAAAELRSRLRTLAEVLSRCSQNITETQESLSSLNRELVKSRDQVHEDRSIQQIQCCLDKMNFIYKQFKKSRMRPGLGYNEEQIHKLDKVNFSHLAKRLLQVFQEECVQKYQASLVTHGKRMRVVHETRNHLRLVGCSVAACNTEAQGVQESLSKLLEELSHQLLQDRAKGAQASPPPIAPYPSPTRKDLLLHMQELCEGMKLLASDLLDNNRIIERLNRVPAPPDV

As to `Cc1n[nH]c(C(=O)N2CC[C@H](Oc3ccc(-c4ncnc(Nc5ccc(N6CCN(C7COC7)CC6)cc5)n4)cc3C#N)[C@H](F)C2)c1C` [Example 526, 2-(((3R,4S)-1-(3,4-dimethyl-1H-pyrazole-5-carbonyl)-3-fluoropiperidin-4-yl)oxy)-5-(4-((4-(4-(oxetan-3-yl)piperazin-1-yl)phenyl)amino)-1,3,5-triazin-2-yl)benzonitrile], the figures for the IC50 against TBK1, at IKKε (setting [1]) and at hJAK2 were 9 nM, 19 nM and 447 nM, respectively.

As to `Cc1c(Nc2ncnc(-c3ccc(O[C@H]4CCN(C(=O)[C@H](C)O)C[C@H]4F)c(C#N)c3)n2)cnn1C` [Example 566, 5-(4-((1,5-dimethyl-1H-pyrazol-4-yl)amino)-1,3,5-triazin-2-yl)-2-(((3R,4S)-3-fluoro-1-((S)-2-hydroxypropanoyl)piperidin-4-yl)oxy)benzonitrile], the IC50 against TBK1 was 14 nM; at IKKε (setting [1]), 33 nM; at hJAK2, at least 1000 nM.

In the case of `N#Cc1cc(-c2ncnc(Nc3ccc(N4CCN(C5COC5)CC4)cc3)n2)ccc1O[C@H]1CCN(C(=O)c2cnc[nH]2)C[C@H]1F` [Example 146, 2-(((3R,4S)-3-fluoro-1-(1H-imidazole-5-carbonyl)piperidin-4-yl)oxy)-5-(4-((4-(4-(oxetan-3-yl)piperazin-1-yl)phenyl)amino)-1,3,5-triazin-2-yl)benzonitrile], the IC50 on TBK1 worked out at 3 nM; on IKKε, 1 nM; on hJAK2, 156 nM.

As to `COc1cc(Nc2ncnc(-c3ccc(O[C@H]4CCN(C(=O)CO)CC4(F)F)c(C#N)c3)n2)ccc1N1CCN(C2COC2)CC1` [Example 560, (S)-2-((3,3-difluoro-1-(2-hydroxyacetyl)piperidin-4-yl)oxy)-5-(4-((3-methoxy-4-(4-(oxetan-3-yl)piperazin-1-yl)phenyl)amino)-1,3,5-triazin-2-yl)benzonitrile], the IC50 on TBK1 was 2 nM; at IKKε (setting [1]), 1 nM; on hJAK2, 18 nM.

Take `C[C@@H]1CN(c2ccc(Nc3ncnc(-c4ccc(O[C@@H]5CCN(C(=O)[C@@H](C)O)CC5(F)F)c(C#N)c4)n3)cc2)CCN1C1COC1` [Example 247, 2-(((R)-3,3-difluoro-1-((R)-2-hydroxypropanoyl)piperidin-4-yl)oxy)-5-(4-((4-((R)-3-methyl-4-(oxetan-3-yl)piperazin-1-yl)phenyl)amino)-1,3,5-triazin-2-yl)benzonitrile]: the IC50 on TBK1 was 233 nM; on IKKε it was 397 nM; at hJAK2, 333 nM.

In the case of `N#Cc1cc(-c2ncnc(Nc3ccc(N4CCN(C5COC5)CC4)cc3)n2)ccc1OCC1CCOCC1` [Example 285, 5-(4-((4-(4-(oxetan-3-yl)piperazin-1-yl)phenyl)amino)-1,3,5-triazin-2-yl)-2-((tetrahydro-2H-pyran-4-yl)methoxy)benzonitrile], the results for the IC50 against TBK1, on IKKε and at hJAK2 were 4 nM, 8 nM and 313 nM, respectively.

In the case of `C[C@H](O)C(=O)N1CC[C@H](Oc2ccc(-c3ncnc(Nc4ccc(N5CCN(C6COC6)[C@H](C)C5)cc4)n3)cc2C#N)C(F)(F)C1` [Example 246, 2-(((S)-3,3-difluoro-1-((S)-2-hydroxypropanoyl)piperidin-4-yl)oxy)-5-(4-((4-((R)-3-methyl-4-(oxetan-3-yl)piperazin-1-yl)phenyl)amino)-1,3,5-triazin-2-yl)benzonitrile], the IC50 against TBK1 was determined as 2 nM; at IKKε, 1 nM; at hJAK2 it was 181 nM.

As to `COCC(=O)N1CC[C@H](Oc2ccc(-c3ncnc(Nc4ccc(C5CCN(C=O)CC5)c(C)c4)n3)cc2C#N)[C@H](F)C1` [Example 492, 2-(((3R,4S)-3-fluoro-1-(2-methoxyacetyl)piperidin-4-yl)oxy)-5-(4-((4-(1-formylpiperidin-4-yl)-3-methylphenyl)amino)-1,3,5-triazin-2-yl)benzonitrile], the values for the IC50 against TBK1, at IKKε (setting [1]) and on hJAK2 were 2 nM, 1 nM and 482 nM, respectively.
